We go through 17 compounds from article PMC10791897, “Ligand-binding properties of XaffOBP9, a Minus-C odorant-binding protein from Xyleborus affinis (Coleoptera: Curculionidae: Scolytinae)” (Frontiers in Physiology, 2024).

As usually defined, the Ki is a dissociation constant, usually derived from enzyme kinetics or from competition with a known ligand. In general, IC50 refers to the point on the concentration scale where inhibition reaches its midpoint.

One test relates to XaffOBP9 mutant L114A. Kind of test: Fluorescence binding assays of mutant L114A. Also noted: species or system Xyleborus affinis. Particulars: for binding of ligand to L114A mutant protein: fluorescence binding assays, classes by Ki as in Figure 8 legend. How it is done: (§1) The purified XaffOBP9 was dissolved at a final concentration of 2 μM in 50 mM Tris-HCl (pH 7.4). The binding ability of the fluorescent probe to XaffOBP9 was measured using the Infinite 200 PRO microplate plate reader (Tecan, Mannedorf, Switzerland). […] Binding data were collected as three independent measurements. […] The data analysis and binding curve calculations were processed in Prism 8 (Graphpad Software, San Diego, CA, United States).
(§2) Three types of XaffOBP9 mutants (L71A, L114A, Y106A) were generated using the Fast Site-Directed Mutagenesis Kit (Tiangen, Beijing, China) according to manufacturer protocol. Sited-directed mutagenesis primers were listed in Supplementary Table S1 The PCR amplification reaction was 95°C for 2 min, followed by 94 C for 20 s, 55 C for 10 s, 68 C 2.5 min, with final incubation at 68 °C for 5 min. The three mutant proteins were then expressed and purified following the procedures used for wild-type XaffOBP9.

The subject of a further test is X. affinis. The settings on record: cited from earlier work; for attraction of X. affinis: 2020.
The next test addresses XaffOBP9. As to the kind of experiment: Fluorescence binding assays of XaffOBP9 (1-NPN titration and competitive binding). Also noted: species or system Xyleborus affinis. Particulars: for Ki: calculated from IC50: Ki = [IC50]/(1 + [1-NPN]/K1-NPN); for IC50: competitor displacing 1-NPN, 2 μM protein, 50 mM Tris-HCl pH 7.4. The method, then: (§3) The purified XaffOBP9 was dissolved at a final concentration of 2 μM in 50 mM Tris-HCl (pH 7.4). The binding ability of the fluorescent probe to XaffOBP9 was measured using the Infinite 200 PRO microplate plate reader (Tecan, Mannedorf, Switzerland). […] These compounds (>90% puity) were purchased from Yuanye Bio-Technology (Shanghai, China), Alading Chemical Industry (Shanghai, China) and Sigma-Aldrich (MO, United States). Binding data were collected as three independent measurements. […] The data analysis and binding curve calculations were processed in Prism 8 (Graphpad Software, San Diego, CA, United States).

In a further test the target is XaffOBP9 mutant L71A. As to the kind of experiment: Fluorescence binding assays of mutant L71A. Also noted: species or system Xyleborus affinis. Particulars: read-out: Kd with 1-NPN. How it is done:
as §3, §2

In a further test the target is XaffOBP9 mutant Y106A. Kind of test: Fluorescence binding assays of mutant Y106A. Also noted: species or system Xyleborus affinis. The method, then: as §1, §2

“Also recorded” adds a separate entry of the source. Like-named read-outs stand apart in the source and are kept apart here.

On to `C=C1C2CCC3C2C(C)(C)CCCC13C` (single isomer, unassigned; (+)) [(+)-Longifolene], for which the “binding of ligand to L114A mutant protein” value (“binding of ligand” below) with XaffOBP9 mutant L114A was “lost its ability to bind”. Moreover, the “attraction of X. affinis” value with X. affinis (ref Xu et al.) was “attraction effect”. For the same compound, at XaffOBP9, the inhibitory constant (Ki) was 16.7 µM and the 50% inhibitory concentration (IC50) stood at 19.5 µM.

In the case of `CC(C)(O)c1ccccc1` [2-Phenyl-2-propanol], the “binding of ligand” value in the test on XaffOBP9 mutant L114A is “lost its ability to bind”. Besides, in the test with X. affinis (ref Xu et al.), the “attraction of X. affinis” value is “attraction effect”. On XaffOBP9, the Ki was 12 µM and the concentration for half-maximal inhibition (IC50) worked out at 14 µM.

For the compound `C=C1CCC2CC1C2(C)C` (stereo not drawn) [(-)-β-pinene], at XaffOBP9, the Ki was 13.7 µM and the half-inhibitory concentration (IC50) came to 16 µM.

Consider `C=C(C)[C@@H]1CC=C(C)CC1` [(S)-(-)-Limonene], for which, in the test with XaffOBP9 mutant L114A, the “binding of ligand” value is listed as “lost its ability to bind”. In addition, on XaffOBP9, the inhibitory constant (Ki) is 14 µM and the IC50 is 16.4 µM.

Regarding `CC1=CC(O)C2CC1C2(C)C` [(S)-cis-Verbenol], the “binding of ligand” value in the test on XaffOBP9 mutant L114A is recorded as “weakly bound”. In addition, the “attraction of this rubber bark beetle” value with X. affinis (aggregation pheromone, ref Brand et al., 1975, Chen et al., 2019) is on record as “exhibits attraction effects”. Moreover, on XaffOBP9, the inhibition constant Ki was 13.9 µM and the IC50 came to 16.2 µM.

Regarding `C=C1C2CCC(C2)C1(C)C` (stereo not drawn) [Camphene], on XaffOBP9, the Ki is 8 µM and the IC50 was determined as 9.3 µM.

As to `c1ccc(Nc2cccc3ccccc23)cc1` [Ligand 1-NPN, N-phentl-1-naphthylamine, reference compound], the Kd came out at 5.97 µM on XaffOBP9 mutant L71A; 14.8 µM on XaffOBP9 mutant L114A (read-out: Kd with 1-NPN, mutant L114A); 5.91 µM on XaffOBP9 (read-out: dissociation constant K 1-NPN, titration of 2 μM protein with 1-NPN, Scatchard plot); 8.7 µM at XaffOBP9 mutant Y106A (read-out: Kd with 1-NPN, mutant Y106A).

Turning to `CC1=CCC2C(C1)C2(C)C` (stereo not drawn) [Ligand 3-Carene, 3-Carene], the “binding of ligand” value in the test on XaffOBP9 mutant L114A was “lost its ability to bind”. In addition, on XaffOBP9, the Ki is 10.6 µM and the half-inhibitory concentration (IC50) was 12.4 µM.

Regarding `CCCCCCCCCCCCCCCC(=O)OC` [Methyl palmitate], the “reduction of relative fluorescence intensity of the [XaffOBP/1-NPN] mixture” value with XaffOBP9 (competitive fluorescence binding curves) is reported as “did not reduce the relative fluorescence intensity to less than half”.

Turning to `C=CC(=C)CCC=C(C)C` [Myrcene], the “binding of ligand” value in the test with XaffOBP9 mutant L114A is “lost its ability to bind”. At XaffOBP9, the Ki is 9.8 µM and the half-inhibitory concentration (IC50) turned out to be 11.4 µM.

For the compound `C=C1CCC2(C(C)C)CC12` (stereo not drawn) [Sabinene], the “binding of ligand” value in the test on XaffOBP9 mutant L114A was “lost its ability to bind”. At XaffOBP9, the Ki is 15.6 µM and the IC50 worked out at 18.2 µM.

For `CC1=CCC(=C(C)C)CC1` [Terpinolene], the “binding of ligand” value in the test on XaffOBP9 mutant L114A is reported as “lost its ability to bind”. Moreover, at XaffOBP9, the Ki was 11.3 µM and the half-maximal inhibitory concentration (IC50) turned out to be 13.2 µM.

On to `CCCCCCCCCCCCCC` [Tetradecane], for which the “binding of ligand” value in the test with XaffOBP9 mutant L114A is on record as “lost its ability to bind”. Besides, in the test with X. affinis (ref Xu et al.), the “attraction of X. affinis” value is recorded as “attraction effect”. At XaffOBP9, the Ki is 13.5 µM and the IC50 is 15.7 µM. Also, the “change of binding affinity of Y106A compared with WT” value in the test on XaffOBP9 mutant Y106A (fluorescence binding assays) is “noticeable decrease in its affinity; also recorded: certain decrease in binding”.

For `CCO` [ethanol], in the test with X. affinis (attractant lure, ref Ranger et al., 2011, Steininger et al., 2015, Lehenberger et al., Cavaletto et al., 2021), the “attraction of X. affinis” value was “only weakly attracted”.

Take `Cc1cccc(C(C)C)c1` [m-Cymene]: the “binding of ligand” value with XaffOBP9 mutant L114A is “weakly bound”. At XaffOBP9, the Ki is 14.8 µM and the IC50 is 17.3 µM.

Turning to `CC1=CC[C@H]2[C@H]3[C@@H]1[C@]2(C)CC[C@H]3C(C)C` [α-copaene], in the test on XaffOBP9 mutant L114A, the “binding of ligand” value is on record as “weakly bound”. On XaffOBP9, the inhibition constant (Ki) was 11.4 µM and the IC50 is 13.3 µM.

With `CC1=CCC2CC1C2(C)C` (stereo not drawn) [α-pinene], the “effect on attraction of X. affinis” value with X. affinis (trapping investigations, ref Miller and Rabaglia, 2009) was “enhance the attractive effect of ethanol”. In addition, on XaffOBP9, the Ki was 8.5 µM and the IC50 stood at 9.9 µM.
